Test results as given in patent US20260306463A1, “SIK INHIBITORS TO TREAT CHRONIC KIDNEY DISEASE” (The General Hospital Corporation, priority 2023, published 2026).
“Also recorded” adds a separate entry of the source.

Assays:
[1] = system: mice with adenine diet-induced chronic kidney disease; assay: 8 week adenine diet CKD study, SK-124 versus once daily PTH injections; format: in vivo, mouse (female CD1); details: 8 weeks
Protocol: FIGS. 4A-4D. […] (A) Study design: Female CD1 mice (n=8/group) were treated with control or 0.2% adenine diet starting at […] of age along with vehicle, PTH (80 mcg/kg/d, IP injections) or SK-124 (40 mg/kg) treatment by oral gavage once daily. Mice were treated for 8 weeks. (B, C) After 8 weeks of treatment, the indicated serum analyte was measured. (D) Whole kidney RNA from the indicated groups was analyzed by RT-qPCR for the indicated fibrosis marker gene.
(§1) 7-week-old female CD1 mice were obtained from Charles River Laboratories (Wilmington, MA) and were fed on 0.2% adenine containing diet (TD.130900; 0.2% Adenine, 0.9% Phosphate, 0.5% Calcium; Envigo) or control diet (TD. 96348) for 6 or 8 weeks to induce chronic kidney disease (CKD). Mice were oral gavaged with 40 mg/kg SK-124, or intraperitonially injected with 80 μg/kg PTH, or treated with vehicle 5 days a week for the duration of the special diet.
For studies with Ubiquitin-Cre^ERt2; Sik2^ff; Sik3^ff mice (JAX #007001 for Ubiquitin-Cre^ERt2: RRID:MGL:5905012 for Sik2 foxed mice; and Sik3^tmla(EUCOMM)Hmgu mice (RRID:MGI:5085429) bred to PGK1 FLPo mice (JAX #011065) in order to generate Sik3 foxed mice), tamoxifen was injected (1 mg, IP, Q48 hours, 3 injections total) in all animals including Cre-negative control littermates housed in cages with Pure-o′Cel bedding at 5 weeks of age. Mice were then fed on 0.2% adenine diet from 6 weeks to 9 weeks of age. Mice were fasted for 6 hours and treated with SK-124 and PTH 4 hours and 2 hours before the sacrifice. Blood and spot urine samples were collected by cheek pouch bleeding and by pipetting urine collected on hydrophobic sand (Labsand; Braintree, MA). Kidneys were immediately snap-frozen in liquid nitrogen for TRIzol (Life Technologies)-Chloroform (Fischer Scientific) based RNA isolation or protein isolation, or fixed in 10% formalin at 4C for 24 hrs for histology. All serum and urine measurements were performed using commercial bioassay detection reagents listed in Table 1, following the manufacturers' instructions. Urine protein levels were measured by Bradford assay and normalized to urine creatinine.
(§2) cDNA was prepared using Primescript RT kit (Takara Inc), with 750 ng RNA per reaction. RT-qPCR was performed by using PerfeCa® SYBR® Green FAstMix® ROX (Quanta bio) in the StepOnePlus™ Real-time PCR System (Applied Biosystems). Hmbs was used as a control housekeeping gene for mouse samples, and B-Actin was used for organoids, relative expression was calculated (2^-deltaCT method) and compared to the mean of control group if necessary. Primers used for RT-qPCR are listed in Table 2 (mouse primers) and Table 3 (human primers).

[2] = system: human kidney organoids; assay: cisplatin injury of human kidney organoids: immunostaining, organoid size; format: cell-based; details: intermittent cisplatin, 5 treatments
Protocol: FIG. 7. SK-124 preserves human kidney organoid integrity in cisplatin injury model. Human kidney organoids derived from H9 embryonic stem cells were treated with intermittent cisplatin (5 separate treatments) based on published protocols along with the indicated agent. Organoids were cryo-sectioned and immuno-stained with the indicated markers. The top panels show low power images and the bottom panels focus on regions of proximal tubule cells. The graph measures the mean diameter of organoids in the control (no cisplatin), cisplatin+DMSO, and cisplatin+SK-124 treatment groups.
BJFF human induced pluripotent stem cells (hPSCs) were maintained on Geltrexcoated (Thermo Fisher Scientific) plates using StemFit Basic04 Complete (Ajinomoto Co. Inc.) as previously reported(25). The cells were passaged weekly using Accutase (STEMCELL Technologies) for dissociation and Y27632 (Tocris) for adhesion. Directed differentiation of hPSCs into kidney organoids has been published elsewhere (29). Briefly, hPSCs were differentiated into metanephric mesenchyme cells on day 8 by a three-step directed differentiation protocol. Metanephric mesenchyme was transferred into suspension culture in 96-well ultralow adhesion plates (Coming) and further differentiated into kidney organoids, as previously reported(25). Quality control measures of SIX2 immunostaining on day 8 of differentiation and CDH1, LTL, PODXL, CD146, MEIS1/2/3, and SYTOX-blue staining on day 21 were performed on all batches of kidney organoids to limit batch-to-batch heterogeneity. Kidney organoids were maintained in 200 μl of basal media consisting of Advanced RPMI (Thermo Fisher Scientific) and GlutaMAX (Thermo Fisher Scientific) in 96-well plates, as previously reported. Media changes were conducted three times weekly with removal of 90 [l and addition of 100 μl of fresh basal media.
For cisplatin induced injury, day 49 organoids were treated with 5 μM cisplatin in basal media after full media change. After 24 hours, full media exchanges were performed. This 24-hour treatment was performed twice a week, on day 52-53, day 56-57, day 59-60, and day 63-64 as well, for a total of five cisplatin treatments. Samples were obtained for RT-qPCR and immunostaining immediately following each 24-hour treatment with cisplatin, and from corresponding controls.
Following the treatment, the organoids were collected and immediately fixed in 4% PFA in PBS for 1 hour at room temperature, submerged in 30% sucrose overnight at 4° C., then embedded in O.C.T. Compound (4585. Fisher HealthCare). Subsequently, […] frozen sections were prepared via cryo-sectioning by a cryostat. After 1 hr blocking at room temperature, the sections were treated overnight at 4° C. with primary antibodies in antibody dilution buffer (ADB) with biotinylated LTL (1:200, B-1325, Vector), rat anti-CDH1 (1:500, ab11512, Abcam), goat anti-PODXL (1:500, AF1658, R&D Systems), as well as the antibody of interest, either mouse anti-p21 (1:200, NBP2-43697, Novus Biologicals), or rabbit anti-γH2AX (1:100, 2577, Cell Signaling) antibodies. For the optimum labeling of LTL by biotin/streptavidin interaction, the Streptavidin/Biotin Blocking Kit (SP-2002, Vector Laboratories) was applied according to the manufacturer's instructions. After washing, the samples were stained for 1 hour at RT with the nuclear dye-SYTOX Blue (1:500. S 11348, Invitrogen) and the corresponding secondary antibodies in ADB such as streptavidin-AF750 (1:500, S21384, Invitrogen), donkey anti-rat IgG-AF594 (1:500, A21209, Invitrogen), donkey anti-goat IgG-AF555 (1:500, A21432, Invitrogen), and donkey anti-rabbit IgG-AF488 (1:500, A21206, Invitrogen) for γH2AX or donkey anti-mouse IgG-AF488 (1:500, A21202, Invitrogen) for p21 antibodies as well as mouse anti-Meisl/⅔ (1:200, sc-101850, SantaCruz) conjugated antibody, and slides were mounted with Vectashield antifade mounting medium (H1000, Vector Laboratories). […]

[3] = system: renal fibrosis, adenine-induced CKD mice; assay: renal fibrosis in adenine CKD mice (trichrome, immunoblot, RT-qPCR); format: in vivo, mouse; details: adenine diet; SK-124 40 mg/kg oral
Protocol: FIGS. 3A-3C. SK-124 treatment reduces fibrosis in adenine-induced chronic kidney disease. (A) Representative trichrome stained sections from the indicated groups. Darker staining indicates fibrosis which is increased in vehicle-treated adenine diet mice and reduced by SK-124 treatment. (B) Kidney protein lysates were isolated and analyzed by immunoblotting for alpha-smooth muscle actin (αSMA) (top) and GAPDH (bottom). (C) Whole kidney RNA from the indicated groups was analyzed by RT-qPCR for the indicated fibrosis marker.
as §1, §2
(§3) Snap-frozen kidneys were homogenized in NP-40 lysis buffer (FNN0021, Thermo) with using TissueLyserII at 30 Hz for 5 minutes. Samples were rotated at 4 deg for 20 minutes and frozen on dry ice and thawed. After centrifuging for 30 minutes at 4 deg, the supernatants were collected. After determining the protein concentration by Bradford assay, […] of protein was loaded for western blotting. For KGli cells, the cells were washed with cold PBS then scraped into TNT buffer (Tris-NaCl-Tween buffer, 20 mM Tris-HCl pH 8, 200 mM NaCl, 0.5% Triton X-100 containing 1X-protease inhibitor cocktail (Bimake Inc. 100X, Cat. #B14001), 1 mM DTT, 1 mM NaF, 1 mM Vanadate (New England Biolabs)). Next, samples were vortexed for 1 minute and centrifuged at 14,000g for 6 minutes at 4 deg, and the supernatant was collected.
(§4) For immunoblotting, the lysates were separated by SDS-PAGE (Bio-rad precast gels), and proteins were transferred to the nitrocellulose membranes. Then, the membranes were blocked in 5% milk in tris-buffered saline plus 0.05% Tween-20 (TBST) and incubated with primary antibody in 5% BSA-TBST overnight at 4° C. Next day, after washing, membranes were incubated with anti-rabbit HRP-coupled secondary antibody (1:2500, Cell Signaling Technology, 7074S) or anti-mouse HRP-coupled secondary antibody (1:2500, Cell Signaling, 7076S), and signals were detected with SuperSignal West Femto Maximum Sensitivity Substrate (Thermo scientific) using the iBright imager (ThermoFisher). The antibodies used are: SIK2 (1:1000, Cell Signaling, 6919), GAPDH (1:1000, Cell Signaling, 2118), αSMA (1:1000, Invitrogen, 14-9760-82), pSMAD3 (1:1000, Cell Signaling, 9520), and SMAD⅔ (1:1000, Cell Signaling, 8685).
Hematoxylin and eosin (H+E) staining was performed on some sections using standard protocols and Masson's Trichome stain for fibrosis was performed according to the manufacturer's instructions (ab150686, abcam). Formalin-fixed paraffin embedded sections were also used for in situ hybridization according to the manufacturer instructions (ACDbio). Briefly, the sections were blocked with hydrogen peroxide for 10 minutes at room temperature, followed by antigen retrieval with Pepsin (R2283, Sigma-Aldrich) in humidified chamber in 40° C. HybEZ oven. The Sik1 (526411, ACD), Sik2 (526421, ACD), or Sik3 (526431, ACD) probe was added to the sections for 2 hours in the humidified chamber at 40° C. Then, the signal was amplified (322310, ACD) and detected using Brown DAB kit (322310, ACD). […]

[4] = system: SIK isoforms (Sik1, SIK2, Sik3); assay: SIK isoform expression in kidneys of adenine diet mice (immunoblot, RT-qPCR, RNAscope); format: in vivo, mouse
Protocol: FIGS. 2A-2C. SIK isoform expression in adenine-induced chronic kidney disease. (A) Kidney protein lysates were isolated and analyzed by imnunoblotting for SIK2 (top) and GAPDH (bottom). SIK2 protein levels are increased in adenine diet. (B) Whole kidney RNA from the indicated groups was analyzed by RT-qPCR for the indicated SIK isoform. (C) Kidney sections from control and CKD (6 weeks adenine diet) were stained using RNAscope (darker shade) for the indicated SIK isoform.
as §2, §3
as §4, with “The antibodies used are: SIK2 (1:1000, Cell Signaling, 6919), GAPDH (1:1000, Cell Signaling, 2118), αSMA (1:1000, Invitrogen, 14-9760-82), pSMAD3 (1:1000, Cell Signaling, 9520), and SMAD⅔ (1:1000, Cell Signaling, 8685).” left out
Hematoxylin and eosin (H+E) staining was performed on some sections using standard protocols and Masson's Trichome stain for fibrosis was performed according to the manufacturer's instructions (ab150686, abcam). […] Then, the signal was amplified (322310, ACD) and detected using Brown DAB kit (322310, ACD).

[5] = system: whole kidney transcriptome; assay: bulk RNA-sequencing of whole kidney, adenine CKD mice; format: in vivo, mouse; details: bulk RNA-seq; adenine vs control diet, or SK-124 vs vehicle in CKD mice
Protocol: FIGS. 6A-6F. The effects of SK-124 treatment at the transcriptomic level in adenine-induced mouse chronic kidney disease. RNA-seq was performed on whole kidney RNA samples (n=7/group) from FIG. 1. Volcano plot show gene regulated (>2-fold change, p(adj)<0.05) by CKD (versus control diet, A) or in CKD by SK-124 (versus vehicle control, B). In Volcano plot, representative fibrosis markers (Col3a1, Vim, Serpinel) and proximal tubule integrity (Lrp2. Atplai, and Hnf4a) are shown. Scatterplot (C) and heatmap (D) showing integration of individual RNA-seq comparisons. […] (E) Single cell RNA-sequencing was performed on dissociated kidneys from adenine diet fed mice treated with vehicle or SK-124 (n=4/group). […] (F) Relative cellularity of each annotated cluster is shown in pie chart format for adenine+vehicle (CKD-Veh) or adenine+SK-124 (CKD-SK-124) mice.
Isolated RNA samples from the mouse adenine diet study and human kidney organoid experiment were submitted to Novogene and bulk-RNA sequencing on NovaSeq X Plus Ilumina Novoseq Platform. Sequencing reads were mapped to the mouse reference genome (mm10/GRCm38) or human reference genome (GRCh38/hg38) using Salmon and differential gene expression analysis was performed using DESeq2.

[6] = SK-124 40 mg/kg oral gavage once daily, or PTH 80 mcg/kg/d IP
[7] = whole kidney RNA, RT-qPCR, 6 weeks adenine diet

Sik1 expression [4, 7]	Sik2 expression [4, 7]	Sik3 expression [4, 7]	Compound	CKD-MBD markers [1, 6]	kidney function [1, 6]	fibrosis marker gene expression ([1]; whole kidney RT-qPCR, SK-124 40 mg/kg oral, or PTH 80 mcg/kg/d IP)	patterns of cisplatin-induced injury [2]	fibrosis (trichrome staining) [3]	SIK2 protein level ([4]; kidney lysates, immunoblot, 0.2% adenine diet, 6 weeks)	injury markers (Col3a1, Vim, Serpine1) [5]	markers of intact proximal epithelial cells (Lrp2, Atpla1, Hnf4a) / epithelial cell integrity [5]
			PTH: Human PTH1-34, dissolved in 10 mM acetic acid	did not cause these effects	did not cause these effects	did not cause these effects	minimal effects				
increased	increased	trends towards increased	Nc1ncnc2nc[nH]c12 [adenine]					increased	increased; also recorded: robust SIK2 upregulation	upregulated	reduced
